Data published in the supplement of paper PMC10307832.

How the values were obtained:
Test in all cases: relative viability (nuclei count vs DMSO), 5 days (fraction); higher = more cells survive
201T = tested on: 201T
Procedure, shortened: (§1)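 Relative viability is defined as nuclei in treated wells over nuclei in vehicle wells. Duplicate plates were run and medians reported. Lung cancer cell lines in 1536-well plates were dosed by pin tool one day after seeding, with one drug or with a fixed anchor-drug dose plus five library-drug doses (not always all listed) in √10 steps, and nuclei were counted after 5 days.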

BEN = tested on: BEN
Procedure, shortened: as §1

CAL-12T = tested on: CAL-12T
Procedure, shortened: as §1

HCC-827 = tested on: HCC-827
Procedure, shortened: as §1

LCLC-103H = tested on: LCLC-103H
Procedure, shortened: as §1

LCLC-97TM1 = tested on: LCLC-97TM1
Procedure, shortened: as §1

LXF-289 = tested on: LXF-289
Procedure, shortened: as §1

NCI-H1395 = tested on: NCI-H1395
Procedure, shortened: as §1

NCI-H1437 = tested on: NCI-H1437
Procedure, shortened: as §1

NCI-H1650 = tested on: NCI-H1650
Procedure, shortened: as §1

NCI-H1793 = tested on: NCI-H1793
Procedure, shortened: as §1

NCI-H1944 = tested on: NCI-H1944
Procedure, shortened: as §1

NCI-H2087 = tested on: NCI-H2087
Procedure, shortened: as §1

NCI-H2228 = tested on: NCI-H2228
Procedure, shortened: as §1

NCI-H2405 = tested on: NCI-H2405
Procedure, shortened: as §1

NCI-H3122 = tested on: NCI-H3122
Procedure, shortened: as §1

NCI-H322M = tested on: NCI-H322M
Procedure, shortened: as §1

NCI-H647 = tested on: NCI-H647
Procedure, shortened: as §1

NCI-H727 = tested on: NCI-H727
Procedure, shortened: as §1

RERF-LC-KJ = tested on: RERF-LC-KJ
Procedure, shortened: as §1

SK-LU-1 = tested on: SK-LU-1
Procedure, shortened: as §1

`CCN(CC)CCCCNc1ncc2cc(-c3cc(OC)cc(OC)c3)c(NC(=O)NC(C)(C)C)nc2n1` + Cc1cc(Nc2cc(N3CCN(C)CC3)nc(Sc3ccc(NC(=O)C4CC4)cc3)n2)n[nH]1 [Tozasertib] (partner 0.1 µM) gave a relative viability (201T; first compound 0.01 µM) of 0.995, a relative viability (201T; first compound 0.03162 µM) of 0.992 and a relative viability (201T; first compound 0.1 µM) of 0.979. For the same compound, the relative viability (201T; first compound 0.3162 µM) was 1.02, the relative viability (201T; first compound 1 µM) was 0.721 and the relative viability (BEN; first compound 0.01 µM) was 0.371. The relative viability (BEN; first compound 0.03162 µM) was 0.508, the relative viability (BEN; first compound 0.1 µM) was 0.515 and the relative viability (BEN; first compound 0.3162 µM) was 0.489. For the same compound, the relative viability (BEN; first compound 1 µM) was 0.507, the relative viability (CAL-12T; first compound 0.01 µM) was 0.28 and the relative viability (CAL-12T; first compound 0.03162 µM) was 0.287. The relative viability (CAL-12T; first compound 0.1 µM) was 0.368, the relative viability (CAL-12T; first compound 0.3162 µM) was 0.257 and the relative viability (CAL-12T; first compound 1 µM) was 0.293. It also gave a relative viability (HCC-827; first compound 0.01 µM) of 0.536, a relative viability (HCC-827; first compound 0.03162 µM) of 0.394 and a relative viability (HCC-827; first compound 0.1 µM) of 0.423. For the same compound, the relative viability (HCC-827; first compound 0.3162 µM) was 0.547, the relative viability (HCC-827; first compound 1 µM) was 0.396 and the relative viability (LCLC-103H; first compound 0.01 µM) was 0.588. It also gave a relative viability (LCLC-103H; first compound 0.03162 µM) of 0.486, a relative viability (LCLC-103H; first compound 0.1 µM) of 0.54 and a relative viability (LCLC-103H; first compound 0.3162 µM) of 0.452. The relative viability (LCLC-103H; first compound 1 µM) was 0.31, the relative viability (LCLC-97TM1; first compound 0.01 µM) was 0.236 and the relative viability (LCLC-97TM1; first compound 0.03162 µM) was 0.268. The relative viability (LCLC-97TM1; first compound 0.1 µM) was 0.255, the relative viability (LCLC-97TM1; first compound 0.3162 µM) was 0.34 and the relative viability (LCLC-97TM1; first compound 1 µM) was 0.236. The relative viability (LXF-289; first compound 0.01 µM) was 0.201, the relative viability (LXF-289; first compound 0.03162 µM) was 0.219 and the relative viability (LXF-289; first compound 0.1 µM) was 0.268. For the same compound, the relative viability (LXF-289; first compound 0.3162 µM) was 0.186, the relative viability (LXF-289; first compound 1 µM) was 0.156 and the relative viability (NCI-H1395; first compound 0.01 µM) was 0.77. For the same compound, the relative viability (NCI-H1395; first compound 0.03162 µM) was 0.754, the relative viability (NCI-H1395; first compound 0.1 µM) was 0.785 and the relative viability (NCI-H1395; first compound 0.3162 µM) was 0.695. The relative viability (NCI-H1395; first compound 1 µM) was 0.547, the relative viability (NCI-H1437; first compound 0.01 µM) was 0.426 and the relative viability (NCI-H1437; first compound 0.03162 µM) was 0.403. The relative viability (NCI-H1437; first compound 0.1 µM) was 0.374, the relative viability (NCI-H1437; first compound 0.3162 µM) was 0.46 and the relative viability (NCI-H1437; first compound 1 µM) was 0.335. For the same compound, the relative viability (NCI-H1650; first compound 0.01 µM) was 0.362, the relative viability (NCI-H1650; first compound 0.03162 µM) was 0.305 and the relative viability (NCI-H1650; first compound 0.1 µM) was 0.392. It also gave a relative viability (NCI-H1650; first compound 0.3162 µM) of 0.361, a relative viability (NCI-H1650; first compound 1 µM) of 0.247 and a relative viability (NCI-H1793; first compound 0.01 µM) of 0.311. It also gave a relative viability (NCI-H1793; first compound 0.03162 µM) of 0.367, a relative viability (NCI-H1793; first compound 0.1 µM) of 0.362 and a relative viability (NCI-H1793; first compound 0.3162 µM) of 0.348. For the same compound, the relative viability (NCI-H1793; first compound 1 µM) was 0.241, the relative viability (NCI-H1944; first compound 0.01 µM) was 0.25 and the relative viability (NCI-H1944; first compound 0.03162 µM) was 0.27. For the same compound, the relative viability (NCI-H1944; first compound 0.1 µM) was 0.248, the relative viability (NCI-H1944; first compound 0.3162 µM) was 0.249 and the relative viability (NCI-H1944; first compound 1 µM) was 0.213. For the same compound, the relative viability (NCI-H2087; first compound 0.01 µM) was 0.243, the relative viability (NCI-H2087; first compound 0.03162 µM) was 0.282 and the relative viability (NCI-H2087; first compound 0.1 µM) was 0.25. The relative viability (NCI-H2087; first compound 0.3162 µM) was 0.236, the relative viability (NCI-H2087; first compound 1 µM) was 0.251 and the relative viability (NCI-H2228; first compound 0.01 µM) was 0.183. For the same compound, the relative viability (NCI-H2228; first compound 0.03162 µM) was 0.231, the relative viability (NCI-H2228; first compound 0.1 µM) was 0.319 and the relative viability (NCI-H2228; first compound 0.3162 µM) was 0.258. It also gave a relative viability (NCI-H2228; first compound 1 µM) of 0.197, a relative viability (NCI-H2405; first compound 0.01 µM) of 0.729 and a relative viability (NCI-H2405; first compound 0.03162 µM) of 0.737. It also gave a relative viability (NCI-H2405; first compound 0.1 µM) of 0.699, a relative viability (NCI-H2405; first compound 0.3162 µM) of 0.733 and a relative viability (NCI-H2405; first compound 1 µM) of 0.695. For the same compound, the relative viability (NCI-H3122; first compound 0.01 µM) was 0.559, the relative viability (NCI-H3122; first compound 0.03162 µM) was 0.439 and the relative viability (NCI-H3122; first compound 0.1 µM) was 0.464. It also gave a relative viability (NCI-H3122; first compound 0.3162 µM) of 0.326, a relative viability (NCI-H3122; first compound 1 µM) of 0.364 and a relative viability (NCI-H322M; first compound 0.01 µM) of 0.717. The relative viability (NCI-H322M; first compound 0.03162 µM) was 0.49, the relative viability (NCI-H322M; first compound 0.1 µM) was 0.589 and the relative viability (NCI-H322M; first compound 0.3162 µM) was 0.57. The relative viability (NCI-H322M; first compound 1 µM) was 0.448, the relative viability (NCI-H647; first compound 0.01 µM) was 0.265 and the relative viability (NCI-H647; first compound 0.03162 µM) was 0.289. The relative viability (NCI-H647; first compound 0.1 µM) was 0.113, the relative viability (NCI-H647; first compound 0.3162 µM) was 0.332 and the relative viability (NCI-H647; first compound 1 µM) was 0.223. It also gave a relative viability (NCI-H727; first compound 0.01 µM) of 0.661, a relative viability (NCI-H727; first compound 0.03162 µM) of 0.521 and a relative viability (NCI-H727; first compound 0.1 µM) of 0.571. The relative viability (NCI-H727; first compound 0.3162 µM) was 0.659, the relative viability (NCI-H727; first compound 1 µM) was 0.525 and the relative viability (RERF-LC-KJ; first compound 0.01 µM) was 0.547. The relative viability (RERF-LC-KJ; first compound 0.03162 µM) was 0.617, the relative viability (RERF-LC-KJ; first compound 0.1 µM) was 0.51 and the relative viability (RERF-LC-KJ; first compound 0.3162 µM) was 0.567. It also gave a relative viability (RERF-LC-KJ; first compound 1 µM) of 0.489, a relative viability (SK-LU-1; first compound 0.01 µM) of 0.306 and a relative viability (SK-LU-1; first compound 0.03162 µM) of 0.359. It also gave a relative viability (SK-LU-1; first compound 0.1 µM) of 0.388, a relative viability (SK-LU-1; first compound 0.3162 µM) of 0.363 and a relative viability (SK-LU-1; first compound 1 µM) of 0.259.
